Test results: US12275731B2, “Azaindole inhibitors of wild-type and mutant forms of LRRK2” (DANA-FARBER CANCER INSTITUTE, INC., priority 2018, dated 2025)

Tests used:
Assay in all cases: KinomeScan profiling
Assay type in all cases: binding
[1] = biological target: T1, ABL1(H396P)-phosphorylated (Homo sapiens, UniProt P00519, H396P); settings: read-out: % control
T1 construct: purchased KinomeScan®
How it was run: (§1)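 Selectivity was assessed by binding competition at 1 μM against 468 kinases. Values below 35% of control define an interaction.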

ABL1-phosphorylated = biological target: T2, ABL1-phosphorylated (Homo sapiens, UniProt P00519); settings: read-out: % control
T2 construct: purchased KinomeScan®
How it was run: as §1

CLK2 = CLK2 (Homo sapiens, UniProt P49760); settings: CLK2, 1 μM; read-out: % control
How it was run: as §1

ERBB4 = ERBB4 (Homo sapiens, UniProt Q15303); settings: ERBB4, 1 μM; read-out: % control
How it was run: (§2)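 1 μM cpd in DMSO; 468-kinase panel; readout RLU. % ctrl = (cpd − pos ctrl)/(neg ctrl − pos ctrl) ×100. Pos ctrl = 0%, DMSO = 100%. Hit cut-off <35%.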

ERK3 = ERK3 (Homo sapiens, UniProt Q16659); settings: ERK3, 1 μM; read-out: % control
How it was run: as §2

JNK2 = biological target: T3, JNK2 (Homo sapiens, UniProt P45984); settings: JNK2, 1 μM; read-out: % control
T3 construct: purchased KinomeScan®
How it was run: as §1

MAP4K5 = MAP4K5 (Homo sapiens, UniProt Q9Y4K4); settings: MAP4K5, 1 μM; read-out: % control
How it was run: as §1

MST2 = biological target: T4, MST2 (Homo sapiens, UniProt Q13188); settings: MST2, 1 μM; read-out: % control
T4 sequence (Q13188 1-491): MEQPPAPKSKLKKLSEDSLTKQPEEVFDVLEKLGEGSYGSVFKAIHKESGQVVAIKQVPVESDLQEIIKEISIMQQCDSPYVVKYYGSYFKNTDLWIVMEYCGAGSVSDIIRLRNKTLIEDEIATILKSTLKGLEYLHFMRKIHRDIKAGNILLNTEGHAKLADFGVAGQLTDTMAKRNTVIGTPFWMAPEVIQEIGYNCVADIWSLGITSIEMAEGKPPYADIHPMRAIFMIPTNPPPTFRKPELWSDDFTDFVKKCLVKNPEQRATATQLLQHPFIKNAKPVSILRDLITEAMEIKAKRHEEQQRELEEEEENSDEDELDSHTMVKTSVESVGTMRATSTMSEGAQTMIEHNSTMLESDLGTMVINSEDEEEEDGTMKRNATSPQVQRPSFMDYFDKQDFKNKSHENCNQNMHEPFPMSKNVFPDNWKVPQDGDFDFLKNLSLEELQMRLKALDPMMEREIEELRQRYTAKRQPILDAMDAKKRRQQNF
How it was run: as §1

RIPK2 = RIPK2 (Homo sapiens, UniProt O43353); settings: RIPK2, 1 μM; read-out: % control
How it was run: as §1

SRC = biological target: T5, SRC (Homo sapiens, UniProt P12931); settings: read-out: % control
T5 construct: purchased KinomeScan® (panel service)
How it was run: as §1

STK33 = biological target: T6, STK33 (Homo sapiens, UniProt Q9BYT3); settings: STK33, 1 μM; read-out: % control
T6 construct: purchased KinomeScan® (panel service)
How it was run: as §1

TNIK = TNIK (Homo sapiens, UniProt Q9UKE5); settings: read-out: % control
How it was run: as §1

YSK4 = biological target: T7, YSK4 (Homo sapiens, UniProt Q56UN5); settings: YSK4, 1 μM; read-out: % control
T7 sequence (Q56UN5 1-1328): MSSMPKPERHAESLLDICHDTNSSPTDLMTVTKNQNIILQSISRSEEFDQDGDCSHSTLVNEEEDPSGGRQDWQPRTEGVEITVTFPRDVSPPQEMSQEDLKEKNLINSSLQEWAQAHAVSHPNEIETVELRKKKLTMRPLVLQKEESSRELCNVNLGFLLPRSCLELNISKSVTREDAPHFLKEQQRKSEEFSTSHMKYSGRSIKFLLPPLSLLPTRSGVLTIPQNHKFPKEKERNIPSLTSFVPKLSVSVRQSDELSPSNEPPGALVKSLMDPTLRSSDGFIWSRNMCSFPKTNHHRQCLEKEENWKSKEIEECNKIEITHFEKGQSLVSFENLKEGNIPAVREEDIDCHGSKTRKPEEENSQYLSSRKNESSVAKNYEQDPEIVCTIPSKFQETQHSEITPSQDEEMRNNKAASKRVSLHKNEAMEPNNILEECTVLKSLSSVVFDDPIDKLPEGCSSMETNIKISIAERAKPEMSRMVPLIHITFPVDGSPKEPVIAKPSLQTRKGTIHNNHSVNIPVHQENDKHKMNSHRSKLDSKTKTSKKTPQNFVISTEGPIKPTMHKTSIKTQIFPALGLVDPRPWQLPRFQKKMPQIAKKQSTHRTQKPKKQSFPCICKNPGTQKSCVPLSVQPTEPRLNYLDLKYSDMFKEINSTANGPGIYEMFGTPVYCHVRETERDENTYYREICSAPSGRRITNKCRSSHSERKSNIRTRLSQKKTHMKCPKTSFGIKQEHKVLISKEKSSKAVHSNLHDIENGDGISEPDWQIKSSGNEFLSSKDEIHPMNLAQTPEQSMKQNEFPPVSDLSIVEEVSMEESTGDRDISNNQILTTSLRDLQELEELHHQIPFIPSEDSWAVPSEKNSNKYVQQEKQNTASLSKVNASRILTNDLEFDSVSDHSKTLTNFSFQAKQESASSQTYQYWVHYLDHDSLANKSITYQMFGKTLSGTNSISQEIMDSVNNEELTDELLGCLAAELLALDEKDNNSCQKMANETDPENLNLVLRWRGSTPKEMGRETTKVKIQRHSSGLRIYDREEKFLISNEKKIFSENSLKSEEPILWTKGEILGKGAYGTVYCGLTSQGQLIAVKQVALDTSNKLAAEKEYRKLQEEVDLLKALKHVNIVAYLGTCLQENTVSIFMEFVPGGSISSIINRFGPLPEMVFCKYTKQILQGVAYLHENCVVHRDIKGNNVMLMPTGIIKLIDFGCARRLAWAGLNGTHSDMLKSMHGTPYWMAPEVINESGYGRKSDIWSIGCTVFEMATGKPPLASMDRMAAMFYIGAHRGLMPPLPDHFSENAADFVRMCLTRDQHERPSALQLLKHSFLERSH
How it was run: as §1

Sequence of ERK3 (Q16659 whole entry): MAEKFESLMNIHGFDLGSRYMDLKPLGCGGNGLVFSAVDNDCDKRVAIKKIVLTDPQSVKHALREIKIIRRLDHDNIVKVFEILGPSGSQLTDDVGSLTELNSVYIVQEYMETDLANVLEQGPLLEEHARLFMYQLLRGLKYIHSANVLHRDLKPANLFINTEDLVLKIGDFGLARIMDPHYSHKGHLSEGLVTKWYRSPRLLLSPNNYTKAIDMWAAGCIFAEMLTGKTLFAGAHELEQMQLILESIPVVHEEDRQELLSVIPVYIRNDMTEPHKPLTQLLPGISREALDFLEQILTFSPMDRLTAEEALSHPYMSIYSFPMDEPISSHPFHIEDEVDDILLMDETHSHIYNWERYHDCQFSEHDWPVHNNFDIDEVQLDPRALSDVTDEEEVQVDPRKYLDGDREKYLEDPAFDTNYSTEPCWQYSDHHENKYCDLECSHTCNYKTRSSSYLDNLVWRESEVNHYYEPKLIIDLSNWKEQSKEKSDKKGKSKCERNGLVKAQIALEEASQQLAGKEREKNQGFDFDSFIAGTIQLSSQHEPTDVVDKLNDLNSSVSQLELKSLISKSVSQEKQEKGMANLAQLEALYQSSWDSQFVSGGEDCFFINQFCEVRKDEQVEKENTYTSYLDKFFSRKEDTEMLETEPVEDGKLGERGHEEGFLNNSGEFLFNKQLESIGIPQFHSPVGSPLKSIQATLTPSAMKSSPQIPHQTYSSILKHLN
Sequence of TNIK (Q9UKE5 whole entry): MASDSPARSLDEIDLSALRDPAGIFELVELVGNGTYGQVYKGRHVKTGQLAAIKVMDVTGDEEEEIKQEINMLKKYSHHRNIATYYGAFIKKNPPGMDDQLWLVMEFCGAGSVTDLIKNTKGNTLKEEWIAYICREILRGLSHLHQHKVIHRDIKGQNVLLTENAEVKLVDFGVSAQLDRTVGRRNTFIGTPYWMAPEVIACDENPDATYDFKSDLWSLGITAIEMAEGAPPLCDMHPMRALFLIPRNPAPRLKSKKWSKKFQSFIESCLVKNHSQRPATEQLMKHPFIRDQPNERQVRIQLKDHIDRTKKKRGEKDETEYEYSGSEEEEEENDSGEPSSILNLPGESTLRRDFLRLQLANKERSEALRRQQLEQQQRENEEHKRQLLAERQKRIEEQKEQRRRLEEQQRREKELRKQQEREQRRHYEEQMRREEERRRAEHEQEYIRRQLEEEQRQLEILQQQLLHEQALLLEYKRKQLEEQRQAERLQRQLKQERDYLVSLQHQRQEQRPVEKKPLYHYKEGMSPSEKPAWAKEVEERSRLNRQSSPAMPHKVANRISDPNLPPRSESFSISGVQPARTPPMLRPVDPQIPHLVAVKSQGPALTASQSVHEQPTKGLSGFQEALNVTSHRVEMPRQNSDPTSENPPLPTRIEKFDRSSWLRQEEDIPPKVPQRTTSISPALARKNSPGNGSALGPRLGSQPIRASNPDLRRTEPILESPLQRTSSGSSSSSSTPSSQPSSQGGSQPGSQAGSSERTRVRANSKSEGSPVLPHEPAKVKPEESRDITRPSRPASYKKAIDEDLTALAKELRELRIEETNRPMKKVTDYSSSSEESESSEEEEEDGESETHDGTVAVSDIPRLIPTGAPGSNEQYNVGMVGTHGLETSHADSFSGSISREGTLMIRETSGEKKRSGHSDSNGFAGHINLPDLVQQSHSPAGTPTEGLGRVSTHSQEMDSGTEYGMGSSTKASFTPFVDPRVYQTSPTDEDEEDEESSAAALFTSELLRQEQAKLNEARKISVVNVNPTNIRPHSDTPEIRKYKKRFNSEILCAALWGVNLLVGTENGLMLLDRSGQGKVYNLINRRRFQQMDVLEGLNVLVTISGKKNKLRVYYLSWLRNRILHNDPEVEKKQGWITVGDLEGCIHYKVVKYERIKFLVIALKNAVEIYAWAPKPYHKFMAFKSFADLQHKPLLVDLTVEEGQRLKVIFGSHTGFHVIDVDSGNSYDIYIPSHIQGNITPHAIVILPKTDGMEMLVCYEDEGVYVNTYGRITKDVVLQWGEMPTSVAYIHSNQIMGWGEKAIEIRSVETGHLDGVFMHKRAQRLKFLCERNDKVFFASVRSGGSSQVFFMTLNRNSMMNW
T6 sequence (Q9BYT3 whole entry): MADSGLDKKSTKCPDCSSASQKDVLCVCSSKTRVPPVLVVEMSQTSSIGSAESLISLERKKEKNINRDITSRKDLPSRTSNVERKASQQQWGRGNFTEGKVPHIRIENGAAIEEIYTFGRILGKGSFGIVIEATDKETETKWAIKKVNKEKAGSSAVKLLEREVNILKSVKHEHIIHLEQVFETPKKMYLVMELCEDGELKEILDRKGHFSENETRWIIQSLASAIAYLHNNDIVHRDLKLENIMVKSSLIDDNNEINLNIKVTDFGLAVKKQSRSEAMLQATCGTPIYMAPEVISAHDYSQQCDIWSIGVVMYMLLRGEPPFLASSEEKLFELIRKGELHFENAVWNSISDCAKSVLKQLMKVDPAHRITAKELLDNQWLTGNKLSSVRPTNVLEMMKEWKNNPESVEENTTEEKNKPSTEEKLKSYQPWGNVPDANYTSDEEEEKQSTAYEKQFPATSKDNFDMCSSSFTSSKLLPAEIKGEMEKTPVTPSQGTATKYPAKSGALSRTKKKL
Sequence of MAP4K5 (Q9Y4K4 whole entry): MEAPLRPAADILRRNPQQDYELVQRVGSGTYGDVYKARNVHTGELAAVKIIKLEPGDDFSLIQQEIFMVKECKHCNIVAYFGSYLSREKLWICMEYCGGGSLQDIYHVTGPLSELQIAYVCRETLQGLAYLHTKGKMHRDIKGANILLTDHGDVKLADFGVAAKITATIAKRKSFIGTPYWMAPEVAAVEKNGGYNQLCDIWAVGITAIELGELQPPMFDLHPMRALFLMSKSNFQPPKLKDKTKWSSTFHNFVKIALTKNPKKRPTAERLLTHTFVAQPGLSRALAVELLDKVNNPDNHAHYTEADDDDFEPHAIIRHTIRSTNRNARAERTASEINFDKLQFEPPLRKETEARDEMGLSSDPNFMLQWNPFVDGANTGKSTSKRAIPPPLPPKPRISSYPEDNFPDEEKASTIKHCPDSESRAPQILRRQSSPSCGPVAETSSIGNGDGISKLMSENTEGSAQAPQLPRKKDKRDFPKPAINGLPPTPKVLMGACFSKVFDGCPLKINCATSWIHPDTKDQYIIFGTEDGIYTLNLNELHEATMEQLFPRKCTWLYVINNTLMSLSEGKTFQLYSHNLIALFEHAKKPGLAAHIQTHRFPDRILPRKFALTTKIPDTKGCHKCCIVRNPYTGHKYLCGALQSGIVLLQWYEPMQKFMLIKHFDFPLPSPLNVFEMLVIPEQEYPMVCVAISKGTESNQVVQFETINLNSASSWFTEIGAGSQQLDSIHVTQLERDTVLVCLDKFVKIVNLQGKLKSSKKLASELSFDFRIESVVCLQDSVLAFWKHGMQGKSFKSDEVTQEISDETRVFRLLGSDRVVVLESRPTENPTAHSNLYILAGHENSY
Sequence of CLK2 (P49760 whole entry): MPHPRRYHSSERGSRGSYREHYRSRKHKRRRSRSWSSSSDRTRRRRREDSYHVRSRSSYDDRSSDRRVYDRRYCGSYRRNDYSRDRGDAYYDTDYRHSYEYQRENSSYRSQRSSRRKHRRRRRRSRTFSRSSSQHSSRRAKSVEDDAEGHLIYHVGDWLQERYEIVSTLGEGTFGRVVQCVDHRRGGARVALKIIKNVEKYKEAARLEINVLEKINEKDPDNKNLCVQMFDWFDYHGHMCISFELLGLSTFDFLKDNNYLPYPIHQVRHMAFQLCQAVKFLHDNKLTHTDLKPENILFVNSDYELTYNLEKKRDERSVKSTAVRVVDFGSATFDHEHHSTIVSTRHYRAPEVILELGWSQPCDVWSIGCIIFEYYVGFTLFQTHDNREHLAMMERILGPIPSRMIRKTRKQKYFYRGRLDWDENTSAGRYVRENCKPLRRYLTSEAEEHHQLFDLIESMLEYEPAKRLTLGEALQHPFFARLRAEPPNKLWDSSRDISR
T3 sequence (P45984 whole entry): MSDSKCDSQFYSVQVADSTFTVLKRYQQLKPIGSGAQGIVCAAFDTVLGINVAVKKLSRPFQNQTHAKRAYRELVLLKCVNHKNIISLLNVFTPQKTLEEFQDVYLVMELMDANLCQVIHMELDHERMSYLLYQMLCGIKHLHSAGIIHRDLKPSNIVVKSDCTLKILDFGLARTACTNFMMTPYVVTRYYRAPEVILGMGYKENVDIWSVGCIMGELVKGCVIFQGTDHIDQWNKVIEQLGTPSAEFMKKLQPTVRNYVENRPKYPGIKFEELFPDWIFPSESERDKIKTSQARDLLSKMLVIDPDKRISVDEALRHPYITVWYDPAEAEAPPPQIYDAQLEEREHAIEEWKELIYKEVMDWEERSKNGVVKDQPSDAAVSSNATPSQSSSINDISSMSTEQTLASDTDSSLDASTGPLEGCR
T5 sequence (P12931 whole entry): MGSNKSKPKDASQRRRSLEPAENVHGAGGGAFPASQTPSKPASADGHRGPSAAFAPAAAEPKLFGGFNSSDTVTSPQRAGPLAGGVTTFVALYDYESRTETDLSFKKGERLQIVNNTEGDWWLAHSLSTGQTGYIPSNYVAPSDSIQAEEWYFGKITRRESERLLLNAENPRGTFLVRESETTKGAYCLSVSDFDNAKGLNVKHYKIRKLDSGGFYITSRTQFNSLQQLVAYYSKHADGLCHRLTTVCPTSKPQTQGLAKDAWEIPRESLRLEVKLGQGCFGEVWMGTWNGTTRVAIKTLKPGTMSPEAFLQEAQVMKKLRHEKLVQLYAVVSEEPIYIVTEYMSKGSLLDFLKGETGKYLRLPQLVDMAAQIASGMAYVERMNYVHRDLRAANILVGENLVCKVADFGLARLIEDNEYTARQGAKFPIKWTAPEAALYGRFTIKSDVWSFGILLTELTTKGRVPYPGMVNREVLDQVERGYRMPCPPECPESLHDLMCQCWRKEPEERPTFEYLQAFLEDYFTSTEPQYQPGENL

| Structure (SMILES) | remaining binding at 1 µM [1] | remaining binding at 1 µM (ABL1-phosphorylated) | remaining binding at 1 µM (CLK2) | remaining binding at 1 µM (ERBB4) | remaining binding at 1 µM (ERK3) | remaining binding at 1 µM (JNK2) | remaining binding at 1 µM (MAP4K5) | remaining binding at 1 µM (MST2) | remaining binding at 1 µM (RIPK2) | remaining binding at 1 µM (SRC) | remaining binding at 1 µM (STK33) | remaining binding at 1 µM (TNIK) | remaining binding at 1 µM (YSK4) |
| --- | --- | --- | --- | --- | --- | --- | --- | --- | --- | --- | --- | --- | --- |
| CNc1c(-c2ccc(C(=O)N3CCC(N4CCOCC4)CC3)cc2)cnc2[nH]cc(Cl)c12 [Compound 96, (4-(3-chloro-4-(methylamino)-1H-pyrrolo[2,3-b]pyridin-5-yl)phenyl)(4-morpholinopiperidin-1-yl)methanone] | 100% | 88% | 11% | 100% | 85% | 0.85% | 39% | 99% | 99% | 100% | 100% | 14% | 2.2% |
| O=C(c1ccc(-c2cnc3[nH]cc(Cl)c3c2NC2CCCC2)cc1)N1CCC(N2CCOCC2)CC1 [Compound 101, (4-(3-chloro-4-(cyclopentylamino)-1H-pyrrolo[2,3-b]pyridin-5-yl)phenyl)(4-morpholinopiperidin-1-yl)methanone] | 100% | 97% | 65% | 97% | 100% | 8.8% | 88% | 74% | 100% | 100% | 100% | 89% | 63% |
| CNc1c(-c2cnn([C@H]3CCN(C(C)=O)C[C@@H]3F)c2)cnc2[nH]cc(Cl)c12 [Compound 77, 1-((3S,4S)-4-(4-(3-chloro-4-(methylamino)-1H-pyrrolo[2,3-b]pyridin-5-yl)-1H-pyrazol-1-yl)-3-fluoropiperidin-1-yl)ethan-1-one] | 81% | 62% | 57% | 100% | 87% | 17% | 77% | 100% | 100% | 99% | 100% | 29% | 2.6% |
